Data as given in US20260284208A1, “SYSTEM” (Oxford University Innovation Limited, priority 2023, published 2026).

Test system: library of 8,380 IKZF3 degrons (ZF-eGFP/mCherry reporter) in Jurkat cells
Assay: Pooled library screen (FACS, NGS, limma voom LogFC of positive vs negative read counts)
Format: cell-based, human
Procedure: A library of 8,380 IKZF3 degrons was cloned into pLVX-Sprout to create the eGFP/mCherry protein degradation reporter plasmid pool. A lentivirus pool was then generated using the Lenti-X lentiviral vector production method.
Jurkat cells were transduced at a multiplicity of infection of <0.3 with the lentivirus vector library in order to maximise the number of cells with a single integration. Transductions were carried out in 6 well TC-treated cell culture dishes (Falcon) with 3×10^6 cells per well. Cells were incubated for 2 days at 37° C. and 5% CO2 before the supernatant was removed and replaced with fresh media. 6 days post-transduction, mCherry+ cells were isolated via FACS using the FACS Aria Fusion (BD) in a buffer containing PBS (Gibco), 2 mM EDTA (Gibco), 25 mM HEPES (Sigma) and 1% BSA (Sigma). 8 days later, cells were treated with DMSO or a thalidomide analog for 18 hours at 37° C. and 5% CO2. mCherry+GFPlow and NOT(mCherry+GFPlow) cells were sorted by FACS using the FACS Aria Fusion (BD). DMSO treated cells were used to set the mCherry+GFPlow gate and dead cells were excluded from sorting by staining cells with 1 μg/mL DAPI (ThermoFisher). gDNA was isolated using the Maxwell RSC 48 (Promega). gDNA from cells that were unsorted and untreated were also isolated to determine the library representation on the day of compound treatment. Throughout the screen >600× coverage of the library was maintained. 3 biological replicates were carried out with a new transduction taking place each time.
A two-step PCR was used where the first PCR (PCR1) amplified the integrated degron sequence from gDNA and the second PCR (PCR2) added Illumina adaptors and barcodes to permit multiplexing. See Supp F for PCR1 and PCR2 primers. Q5 Hot Start High-Fidelity 2× Master Mix (New England Biolabs) was used for both PCRs. Sufficient gDNA was amplified in PCR1 in order to maintain >600× coverage and amplicons were purified using solid phase reversible immobilization (SPRI) beads (Beckman Coulter). Purified PCR1 products were analysed on the Tapestation 4200 (Agilent) to confirm purity prior to proceeding to PCR2. Sufficient PCR1 product was amplified in PCR2 in order to maintain >600× coverage and amplicons were run on a 2% agarose TAE gel. Target bands were excised and purified using the NucleoSpin Gel and PCR Clean-up Kit (Machery Nagel). Amplicons were analysed on the Tapestation 4200 and quantified using Qubit dsDNA HS kit (ThermoFisher). PCR products were pooled and sequenced as paired-reads on the NovaSeq (Illumina) using a SP2 200 cycles kit (Illumina).
Count distributions, percentage of read mapping, library coverage and replicate correlation per sample were assessed for QC purposes.
To carry out the library screen, we used the same plasmid construct as in our earlier flow cytometry assays, but pooling all 8,380 mutants together into one Jurkat population, ensuring a copy number of one plasmid per cell (FIG. 4B). […] These GFP-negative cells were then separated from the remaining GFP-positive population using fluorescence activated cell sorting (FACS). These two populations were then sequenced and the relative abundance of every mutant in both populations compared to provide a log FC value for each mutant sequence. This value indicated how frequently a sequence is observed in the GFP-negative population relative to the GFP-positive population, and therefore how effective a degron it is for that particular IMID compound.

`O=C1CCC(N2C(=O)c3ccccc3C2=O)C(=O)N1` (centres unmarked) [A32, 2-(2,6-dioxopiperidin-3-yl)isoindoline-1,3-dione] was tested, and the A32_logFC (Degron-ID 3102, SEQ ID NO 98, 46F_47Q_49P_50V_52G_53A_54D_55F_67L) was 3.4, the A32_logFC (Degron-ID 3105, SEQ ID NO 103, 46F_47Q_49P_50V_52G_53A_54G_55F_67L) was 3.381 and the A32_logFC (Degron-ID 3106, SEQ ID NO 132, 46F_47Q_49P_50V_52G_53A_54H_55F_67L) was 3.266. For the same molecule, the A32_logFC (Degron-ID 3107, SEQ ID NO 70, 46F_47Q_49P_50V_52G_53A_54I_55F_67L) was 3.527, the A32_logFC (Degron-ID 3108, SEQ ID NO 4, 46F_47Q_49P_50V_52G_53A_54K_55F_67L) was 3.962 and the A32_logFC (Degron-ID 3109, SEQ ID NO 75, 46F_47Q_49P_50V_52G_53A_54L_55F_67L) was 3.497. For the same molecule, the A32_logFC (Degron-ID 3110, SEQ ID NO 49, 46F_47Q_49P_50V_52G_53A_54M_55F_67L) was 3.582, the A32_logFC (Degron-ID 3111, SEQ ID NO 78, 46F_47Q_49P_50V_52G_53A_54N_55F_67L) was 3.484 and the A32_logFC (Degron-ID 3112, SEQ ID NO 5, 46F_47Q_49P_50V_52G_53A_54P_55F_67L) was 3.872. For the same molecule, the A32_logFC (Degron-ID 3116, SEQ ID NO 9, 46F_47Q_49P_50V_52G_53A_54T_55F_67L) was 3.794, the A32_logFC (Degron-ID 3132, SEQ ID NO 73, 46F_47R_49D_50I_52G_53A_54P_55F_67L) was 3.521 and the A32_logFC (Degron-ID 3192, SEQ ID NO 53, 46F_47R_49E_50I_52G_53A_54P_55F_67L) was 3.575. It also gave an A32_logFC (Degron-ID 3252, SEQ ID NO 104, 46F_47R_49N_50I_52G_53A_54P_55F_67L) of 3.38, an A32_logFC (Degron-ID 3312, SEQ ID NO 69, 46F_47R_49P_50I_52G_53A_54P_55F_67L) of 3.528 and an A32_logFC (Degron-ID 3352, SEQ ID NO 74, 46F_47R_49P_50V_52G_53A_54P_55F_67L) of 3.513. The A32_logFC (Degron-ID 3714, SEQ ID NO 136, 46F_47T_49E_50V_52G_53A_54R_55F_67L) was 3.256, the A32_logFC (Degron-ID 3799, SEQ ID NO 121, 46F_47T_49P_50I_52G_53A_54Y_55F_67L) was 3.31 and the A32_logFC (Degron-ID 3821, SEQ ID NO 117, 46F_47T_49P_50V_52G_53A_54C_55F_67L) was 3.33. The A32_logFC (Degron-ID 3940, SEQ ID NO 110, 46F_47V_49E_50V_52G_53A_54A_55F_67L) was 3.355, the A32_logFC (Degron-ID 3954, SEQ ID NO 139, 46F_47V_49E_50V_52G_53A_54R_55F_67L) was 3.254 and the A32_logFC (Degron-ID 3955, SEQ ID NO 63, 46F_47V_49E_50V_52G_53A_54S_55F_67L) was 3.54. For the same molecule, the A32_logFC (Degron-ID 3972, SEQ ID NO 115, 46F_47V_49N_50I_52G_53A_54P_55F_67L) was 3.332, the A32_logFC (Degron-ID 4032, SEQ ID NO 77, 46F_47V_49P_50I_52G_53A_54P_55F_67L) was 3.493 and the A32_logFC (Degron-ID 6496, SEQ ID NO 102, 46L_47C_49P_50I_52G_53F_54T_55C_67L) was 3.382. It also gave an A32_logFC (Degron-ID 6528, SEQ ID NO 135, 46L_47E_49P_50I_52G_53F_54K_55C_67L) of 3.258, an A32_logFC (Degron-ID 6536, SEQ ID NO 101, 46L_47E_49P_50I_52G_53F_54T_55C_67L) of 3.382 and an A32_logFC (Degron-ID 6539, SEQ ID NO 113, 46L_47E_49P_50I_52G_53F_54Y_55C_67L) of 3.343. The A32_logFC (Degron-ID 6700, SEQ ID NO 60, 46L_47Q_49P_50I_52G_53F_54A_55C_67L) was 3.551, the A32_logFC (Degron-ID 6703, SEQ ID NO 88, 46L_47Q_49P_50I_52G_53F_54E_55C_67L) was 3.442 and the A32_logFC (Degron-ID 6706, SEQ ID NO 122, 46L_47Q_49P_50I_52G_53F_54H_55C_67L) was 3.305. The A32_logFC (Degron-ID 6707, SEQ ID NO 85, 46L_47Q_49P_50I_52G_53F_54I_55C_67L) was 3.453, the A32_logFC (Degron-ID 6708, SEQ ID NO 96, 46L_47Q_49P_50I_52G_53F_54K_55C_67L) was 3.401 and the A32_logFC (Degron-ID 6710, SEQ ID NO 59, 46L_47Q_49P_50I_52G_53F_54M_55C_67L) was 3.553. For the same molecule, the A32_logFC (Degron-ID 6713, SEQ ID NO 86, 46L_47Q_49P_50I_52G_53F_54Q_55C_67L) was 3.449, the A32_logFC (Degron-ID 6714, SEQ ID NO 111, 46L_47Q_49P_50I_52G_53F_54R_55C_67L) was 3.346 and the A32_logFC (Degron-ID 6715, SEQ ID NO 66, 46L_47Q_49P_50I_52G_53F_54S_55C_67L) was 3.532. For the same molecule, the A32_logFC (Degron-ID 6719, SEQ ID NO 81, 46L_47Q_49P_50I_52G_53F_54Y_55C_67L) was 3.469, the A32_logFC (Degron-ID 6732, SEQ ID NO 89, 46L_47R_49P_50I_52G_53F_54P_55C_67L) was 3.438 and the A32_logFC (Degron-ID 6775, SEQ ID NO 76, 46L_47T_49P_50I_52G_53F_54S_55C_67L) was 3.495. For the same molecule, the A32_logFC (Degron-ID 6776, SEQ ID NO 87, 46L_47T_49P_50I_52G_53F_54T_55C_67L) was 3.444, the A32_logFC (Degron-ID 6780, SEQ ID NO 57, 46L_47V_49P_50I_52G_53F_54A_55C_67L) was 3.558 and the A32_logFC (Degron-ID 6795, SEQ ID NO 48, 46L_47V_49P_50I_52G_53F_54S_55C_67L) was 3.587. For the same molecule, the A32_logFC (Degron-ID 7840, SEQ ID NO 95, 46L_47Q_49E_50I_52G_53F_54A_55C_67L) was 3.402, the A32_logFC (Degron-ID 7848, SEQ ID NO 131, 46L_47Q_49E_50I_52G_53F_54K_55C_67L) was 3.267 and the A32_logFC (Degron-ID 7853, SEQ ID NO 124, 46L_47Q_49E_50I_52G_53F_54Q_55C_67L) was 3.298. It also gave an A32_logFC (Degron-ID 7854, SEQ ID NO 52, 46L_47Q_49E_50I_52G_53F_54R_55C_67L) of 3.575, an A32_logFC (Degron-ID 7855, SEQ ID NO 51, 46L_47Q_49E_50I_52G_53F_54S_55C_67L) of 3.576 and an A32_logFC (Degron-ID 7857, SEQ ID NO 99, 46L_47Q_49E_50I_52G_53F_54V_55C_67L) of 3.397. For the same molecule, the A32_logFC (Degron-ID 7934, SEQ ID NO 128, 46L_47V_49E_50I_52G_53F_54R_55C_67L) was 3.277 and the A32_logFC (Degron-ID 7935, SEQ ID NO 118, 46L_47V_49E_50I_52G_53F_54S_55C_67L) was 3.326.
